Experimental data from patent US8067042B1 (Mutual Pharmaceutical Company, Inc., priority 2007, dated 2011).

Tests used:
CYP1A2 [1] = target: T1, CYP1A2 (Homo sapiens, UniProt P05177); format: in vitro ADME; details: 50 μM megestrol acetate, microsomes
T1 sequence (P05177 1-516): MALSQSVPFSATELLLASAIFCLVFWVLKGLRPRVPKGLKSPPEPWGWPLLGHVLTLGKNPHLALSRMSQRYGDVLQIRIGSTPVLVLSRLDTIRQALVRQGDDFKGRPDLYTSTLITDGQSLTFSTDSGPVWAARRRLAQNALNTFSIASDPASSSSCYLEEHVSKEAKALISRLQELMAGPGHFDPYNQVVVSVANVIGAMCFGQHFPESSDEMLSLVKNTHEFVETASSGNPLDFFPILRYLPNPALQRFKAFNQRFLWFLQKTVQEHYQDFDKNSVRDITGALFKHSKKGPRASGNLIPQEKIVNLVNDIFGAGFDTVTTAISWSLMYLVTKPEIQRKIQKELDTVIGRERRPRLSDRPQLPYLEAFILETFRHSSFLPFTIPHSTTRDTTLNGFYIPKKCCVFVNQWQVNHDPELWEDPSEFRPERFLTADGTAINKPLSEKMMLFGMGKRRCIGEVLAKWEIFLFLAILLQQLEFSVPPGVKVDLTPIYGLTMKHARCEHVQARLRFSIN

CYP2C8 = target: T2, CYP2C8 (Homo sapiens, UniProt P10632); format: in vitro ADME; design: purchased BD Biosciences Discovery Labware, Woburn, Mass; host or cells: baculovirus-infected insect cells; details: 50 μM megestrol acetate, 20 pmol CYP2C8
T2 sequence (P10632 1-490): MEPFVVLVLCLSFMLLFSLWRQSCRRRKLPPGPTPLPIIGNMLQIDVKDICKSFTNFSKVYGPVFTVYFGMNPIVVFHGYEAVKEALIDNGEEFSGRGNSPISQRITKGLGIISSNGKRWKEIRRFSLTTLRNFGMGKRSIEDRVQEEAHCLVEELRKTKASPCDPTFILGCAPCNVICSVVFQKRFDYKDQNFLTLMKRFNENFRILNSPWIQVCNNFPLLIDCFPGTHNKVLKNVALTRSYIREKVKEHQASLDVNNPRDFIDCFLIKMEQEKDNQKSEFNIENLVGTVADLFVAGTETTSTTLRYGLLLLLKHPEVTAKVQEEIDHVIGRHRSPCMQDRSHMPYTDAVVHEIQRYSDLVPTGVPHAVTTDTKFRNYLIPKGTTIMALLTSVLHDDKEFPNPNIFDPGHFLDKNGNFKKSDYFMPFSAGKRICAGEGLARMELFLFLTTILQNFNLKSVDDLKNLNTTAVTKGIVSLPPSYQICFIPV

CYP2C9 = CYP2C9 (Homo sapiens, UniProt P11712)
Protocol: (§1) The stock solutions were added to incubation mixtures to obtain the final concentrations of 5 and 50 μM, each containing 1% acetonitrile.
Microsomes were prepared by differential centrifugation of liver homogenates pooled from at least ten human donors.
(§2) After a 5 minute preincubation, nicotinamide adenine dinucleotide phosphate (NADPH) regenerating system (NRS; 1.7 mg/mL β-NADP, 7.8 mg/mL glucose-6-phosphate, and 6 units/mL glucose-6-phosphate dehydrogenase in 2% sodium bicarbonate solution) was added to initiate the reaction. The final incubation volume was 0.5 mL. Incubations were continued for 60 minutes.
(§3) All incubations were conducted at 37±1° C. in a shaking water bath. All incubations were carried out in triplicates.
(§4) After a 5-minute preincubation, 2% sodium bicarbonate solution was added to the incubation mixtures. The final incubation volume was 0.5 mL. Incubations were continued for 60 minutes.
(§5) Incubation reactions, including the matrix controls and metabolic negative controls, were terminated by adding 0.5 mL methanol.
(§6) The samples were analyzed on a Supelcosil LC-18 column (3μ, 120 Å, 3.0×100 mm).

CYP2A6 [2] = details: 50 μM megestrol acetate, microsomes, tranylcypromine
CYP2C19 [3] = target: T3, CYP2C19 (Homo sapiens, UniProt P33261); format: in vitro ADME; details: 50 μM megestrol acetate, microsomes
CYP2B6 = target: T4, CYP2B6 (Homo sapiens, UniProt P20813); details: 50 μM megestrol acetate, microsomes, CYP2B6 inhibitor
T4 sequence (P20813 1-491): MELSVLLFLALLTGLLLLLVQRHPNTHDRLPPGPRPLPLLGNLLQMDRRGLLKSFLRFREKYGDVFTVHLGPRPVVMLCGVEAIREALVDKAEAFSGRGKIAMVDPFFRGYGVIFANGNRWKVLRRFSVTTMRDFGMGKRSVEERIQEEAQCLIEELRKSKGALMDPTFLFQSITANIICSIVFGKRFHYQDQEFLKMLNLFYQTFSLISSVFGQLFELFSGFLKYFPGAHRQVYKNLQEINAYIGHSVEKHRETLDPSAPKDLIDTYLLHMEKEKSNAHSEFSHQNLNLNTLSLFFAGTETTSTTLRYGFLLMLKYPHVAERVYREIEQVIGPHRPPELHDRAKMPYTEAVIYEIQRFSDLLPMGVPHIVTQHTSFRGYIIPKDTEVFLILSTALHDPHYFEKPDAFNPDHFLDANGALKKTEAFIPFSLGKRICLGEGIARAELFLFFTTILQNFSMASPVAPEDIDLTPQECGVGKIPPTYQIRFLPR

CYP2D6 = CYP2D6 (Homo sapiens, UniProt P10635)
Protocol: as §1, §2, §3, §4, §5, §6

CYP1A2 [4] = target: T1, CYP1A2; format: in vitro ADME; design: purchased BD Biosciences Discovery Labware, Woburn, Mass; host or cells: baculovirus-infected insect cells; details: 50 μM megestrol acetate, 20 pmol CYP1A2
CYP2C19 [5] = target: T3, CYP2C19; format: in vitro ADME; design: purchased BD Biosciences Discovery Labware, Woburn, Mass; host or cells: baculovirus-infected insect cells; details: 50 μM megestrol acetate, 20 pmol CYP2C19
CYP2A6 [6] = target: T5, CYP2A6 (Homo sapiens, UniProt P11509); format: in vitro ADME; design: purchased BD Biosciences Discovery Labware, Woburn, Mass; host or cells: baculovirus-infected insect cells; details: 50 μM megestrol acetate, 20 pmol CYP2A6
T5 sequence (P11509 1-494): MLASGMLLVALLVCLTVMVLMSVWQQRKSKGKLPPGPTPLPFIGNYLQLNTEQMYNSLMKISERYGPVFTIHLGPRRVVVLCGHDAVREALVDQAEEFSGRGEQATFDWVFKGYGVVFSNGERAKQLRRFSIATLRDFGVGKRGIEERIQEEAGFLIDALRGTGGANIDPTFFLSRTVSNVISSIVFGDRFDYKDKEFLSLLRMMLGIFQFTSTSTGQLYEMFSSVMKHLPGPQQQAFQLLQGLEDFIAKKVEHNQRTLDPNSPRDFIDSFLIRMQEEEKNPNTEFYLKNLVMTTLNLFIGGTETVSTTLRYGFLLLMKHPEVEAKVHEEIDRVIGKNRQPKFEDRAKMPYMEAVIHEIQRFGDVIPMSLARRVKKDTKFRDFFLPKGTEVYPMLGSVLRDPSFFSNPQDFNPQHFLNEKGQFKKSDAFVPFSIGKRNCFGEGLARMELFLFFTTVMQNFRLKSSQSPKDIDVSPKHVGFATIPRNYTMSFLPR

[7] = human, microsomes, 60 min, pH 7.4

Chain of CYP2C9 (P11712 whole entry): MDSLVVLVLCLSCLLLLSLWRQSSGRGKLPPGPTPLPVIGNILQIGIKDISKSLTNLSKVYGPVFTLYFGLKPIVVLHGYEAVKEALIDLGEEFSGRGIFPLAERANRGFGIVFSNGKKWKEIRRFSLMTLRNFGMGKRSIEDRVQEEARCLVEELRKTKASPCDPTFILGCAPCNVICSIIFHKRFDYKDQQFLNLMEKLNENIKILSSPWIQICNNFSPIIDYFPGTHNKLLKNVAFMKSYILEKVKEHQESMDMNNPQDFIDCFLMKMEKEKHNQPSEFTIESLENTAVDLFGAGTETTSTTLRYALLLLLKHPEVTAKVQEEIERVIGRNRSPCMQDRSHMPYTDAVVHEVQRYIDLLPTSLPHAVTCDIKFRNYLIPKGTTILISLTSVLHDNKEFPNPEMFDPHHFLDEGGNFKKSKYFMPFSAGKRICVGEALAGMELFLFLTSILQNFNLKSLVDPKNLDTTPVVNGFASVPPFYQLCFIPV
T3 sequence (P33261 whole entry): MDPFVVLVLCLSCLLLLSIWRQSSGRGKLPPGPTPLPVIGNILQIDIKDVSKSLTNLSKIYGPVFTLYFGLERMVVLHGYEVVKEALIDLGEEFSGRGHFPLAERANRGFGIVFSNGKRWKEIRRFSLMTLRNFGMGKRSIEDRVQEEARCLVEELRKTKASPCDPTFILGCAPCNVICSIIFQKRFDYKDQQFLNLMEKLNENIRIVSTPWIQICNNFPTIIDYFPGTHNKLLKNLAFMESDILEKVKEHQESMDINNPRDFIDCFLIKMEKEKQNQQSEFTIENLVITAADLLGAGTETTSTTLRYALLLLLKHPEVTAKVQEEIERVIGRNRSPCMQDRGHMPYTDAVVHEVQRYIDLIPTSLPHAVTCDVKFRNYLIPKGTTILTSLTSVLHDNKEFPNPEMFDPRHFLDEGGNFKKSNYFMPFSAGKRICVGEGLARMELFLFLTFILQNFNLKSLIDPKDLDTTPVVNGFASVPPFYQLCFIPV
Chain of CYP2D6 (P10635 whole entry): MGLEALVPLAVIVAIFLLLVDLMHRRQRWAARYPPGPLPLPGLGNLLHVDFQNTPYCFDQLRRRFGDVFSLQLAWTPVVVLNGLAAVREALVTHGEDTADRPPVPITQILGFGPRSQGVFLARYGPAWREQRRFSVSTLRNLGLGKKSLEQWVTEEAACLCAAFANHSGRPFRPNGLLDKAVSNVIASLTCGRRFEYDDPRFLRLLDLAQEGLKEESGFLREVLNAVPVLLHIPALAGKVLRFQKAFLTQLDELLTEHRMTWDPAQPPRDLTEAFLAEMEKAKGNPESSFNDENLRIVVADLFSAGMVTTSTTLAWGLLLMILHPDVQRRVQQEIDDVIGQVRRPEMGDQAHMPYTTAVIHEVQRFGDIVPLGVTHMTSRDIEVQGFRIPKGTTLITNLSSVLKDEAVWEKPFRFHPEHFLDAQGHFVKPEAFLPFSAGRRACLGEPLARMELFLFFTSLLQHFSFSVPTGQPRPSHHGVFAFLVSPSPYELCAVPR

SMILES: CC(=O)O[C@]1(C(C)=O)CC[C@H]2[C@@H]3C=C(C)C4=CC(=O)CC[C@]4(C)[C@H]3CC[C@@]21C [Megestrol Acetate, 17 α-acetyloxy-6-methylpregna-4,6-diene-3,20-dione]
- difference in metabolism in the presence or absence of the inhibitor (LC/MS) (CYP1A2 [1]): no significant difference in metabolism
- megestrol acetate converted to its metabolites (CYP2C8): 0.72%
- percent metabolized in presence vs absence of inhibitor (unpaired two-tailed t-test) (CYP2C9): not different from the percentage of megestrol acetate metabolized in the absence of the inhibitor
- metabolized in pooled human liver microsomes (CYP2C9; [7]): > 20%
- difference in metabolism in the presence or absence of the inhibitor (LC/MS) (CYP2A6 [2]): a slight difference in metabolism
- difference in metabolism in the presence or absence of the inhibitor (LC/MS) (CYP2C19 [3]): no significant difference in metabolism
- difference in metabolism in the presence or absence of the inhibitor (LC/MS) (CYP2B6): no significant difference in metabolism
- percent metabolized in presence vs absence of inhibitor (unpaired two-tailed t-test) (CYP2D6): not different from the percentage of megestrol acetate metabolized in the absence of the inhibitor
- metabolized in pooled human liver microsomes (CYP2D6; [7]): > 20%
- metabolism based on analysis of metabolites formed (CYP1A2 [4]): < 1%
- metabolites detected (CYP2C19 [5]): 1.14%
- metabolites formed (CYP2A6 [6]): no metabolites were formed
